In the NIST ThermoML archive (doi:10.1021/acs.jced.6b00428):
Numbers after ± are expanded uncertainties.

Assay: refractive index (Na D-line) (dimensionless)
Settings: 101.33 kPa, Liquid, Standard Abbe refractometry

SMILES | refractive index (293.15 K) | refractive index (298.15 K)
CC(=O)OC(C)C [1-methylethyl ethanoate] | 1.3771 ± 0.0024 | 
O [water] |  | 1.3328 ± 0.0024
CCO [ethanol] |  | 1.3616 ± 0.0024
